Measured values as given in ChEMBL document CHEMBL1141686, “Discovery of a novel class of PPARdelta partial agonists” (Bioorg Med Chem Lett, 2008).

Biological target: T1, Peroxisome proliferator-activated receptor alpha (Homo sapiens, UniProt Q07869)
T1 sequence (Q07869 whole entry): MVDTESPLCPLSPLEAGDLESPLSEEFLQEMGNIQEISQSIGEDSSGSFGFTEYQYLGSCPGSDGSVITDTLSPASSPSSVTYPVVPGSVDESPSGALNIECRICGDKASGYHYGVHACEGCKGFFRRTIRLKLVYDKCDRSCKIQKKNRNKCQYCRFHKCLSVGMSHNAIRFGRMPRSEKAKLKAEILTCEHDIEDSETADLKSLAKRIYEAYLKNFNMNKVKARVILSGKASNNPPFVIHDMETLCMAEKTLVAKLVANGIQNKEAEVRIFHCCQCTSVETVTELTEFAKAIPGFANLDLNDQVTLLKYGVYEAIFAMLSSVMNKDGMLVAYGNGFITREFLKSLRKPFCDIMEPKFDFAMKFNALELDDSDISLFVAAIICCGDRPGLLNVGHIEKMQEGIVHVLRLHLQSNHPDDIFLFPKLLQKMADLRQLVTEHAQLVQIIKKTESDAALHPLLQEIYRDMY

Row | Compound | IC50
1 | O=C(O)COc1cccc2c1CCN(S(=O)(=O)c1cccc(C(=O)Nc3ccc(Cl)cc3C(=O)O)c1)C2 | 5.01 µM
2 | COc1ccc2ccn(S(=O)(=O)c3cccc(C(=O)Nc4ccc(Cl)cc4C(=O)O)c3)c2c1 | 1.58 µM
3 | Cc1cccc(NC(=O)c2cccc(S(=O)(=O)N3CCc4ccccc4C3)c2)c1C(=O)O | > 10 µM
4 | COc1ccc2ccn(S(=O)(=O)c3cccc(C(=O)Nc4ccc(C)cc4C(=O)O)c3)c2c1 | 3.98 µM
5 | COc1ccc2c(ccn2S(=O)(=O)c2cccc(C(=O)Nc3ccc(Cl)cc3C(=O)O)c2)c1 | 3.16 µM
6 | Cc1ccc(NC(=O)c2cccc(S(=O)(=O)n3ccc4cc(C)ccc43)c2)c(C(=O)O)c1 | 1 µM
7 | Cc1ccc(NC(=O)c2cccc(S(=O)(=O)n3ccc4c(C)cccc43)c2)c(C(=O)O)c1 | 1 µM
8 | COc1cccc2c1ccn2S(=O)(=O)c1cccc(C(=O)Nc2ccc(Cl)cc2C(=O)O)c1 | 0.794 µM
9 | Cc1cccc(C(=O)O)c1NC(=O)c1cccc(S(=O)(=O)N2CCc3ccccc3C2)c1 | > 10 µM
10 | Cc1ccc(NC(=O)c2cccc(S(=O)(=O)n3ccc4ccc(Cl)cc43)c2)c(C(=O)O)c1 | 3.16 µM

Second part, the compound after the results:

Row | IC50 | Compound
11 | 3.16 µM | Cc1ccc(NC(=O)c2cccc(S(=O)(=O)n3ccc4cccc(Cl)c43)c2)c(C(=O)O)c1
12 | 1.58 µM | Cc1ccc(NC(=O)c2cccc(S(=O)(=O)n3ccc4cccc(C)c43)c2)c(C(=O)O)c1
13 | > 10 µM | COc1cccc2ccn(S(=O)(=O)c3cccc(C(=O)Nc4ccc(C)cc4C(=O)O)c3)c12
14 | 1.26 µM | COc1cccc2c1ccn2S(=O)(=O)c1cccc(C(=O)Nc2ccc(C)cc2C(=O)O)c1
15 | 7.94 µM | COc1ccc2c(ccn2S(=O)(=O)c2cccc(C(=O)Nc3ccc(C)cc3C(=O)O)c2)c1
